Molecular target: T1, enzyme ACAT-1 (Homo sapiens, UniProt P35610)
T1 construct: endogenous in cells; host or cells: HepG2
T1 sequence (P35610 1-550): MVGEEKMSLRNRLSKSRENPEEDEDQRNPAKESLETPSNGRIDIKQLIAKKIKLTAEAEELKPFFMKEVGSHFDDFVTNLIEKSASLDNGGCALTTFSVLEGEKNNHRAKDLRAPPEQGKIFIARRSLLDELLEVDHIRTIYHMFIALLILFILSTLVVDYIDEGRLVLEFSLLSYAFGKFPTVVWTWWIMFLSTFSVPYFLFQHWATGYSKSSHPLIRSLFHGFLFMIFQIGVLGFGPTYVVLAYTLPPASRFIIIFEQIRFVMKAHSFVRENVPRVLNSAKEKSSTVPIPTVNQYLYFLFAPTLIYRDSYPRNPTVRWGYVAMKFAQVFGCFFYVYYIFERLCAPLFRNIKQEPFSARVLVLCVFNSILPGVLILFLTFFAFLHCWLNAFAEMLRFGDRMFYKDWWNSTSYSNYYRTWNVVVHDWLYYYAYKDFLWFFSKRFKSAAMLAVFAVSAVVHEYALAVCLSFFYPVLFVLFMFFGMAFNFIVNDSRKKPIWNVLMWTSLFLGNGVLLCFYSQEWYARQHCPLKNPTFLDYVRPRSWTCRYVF
Experiment: primary HepG2 enzyme test: cell-based NBD-cholesterol fluorescence assay of ACAT-1 (SOAT-1) inhibition
Conditions: HepG2 cells, NBD-cholesterol 1 μg/ml, incubation 6 h at 37° C., fluorescence excitation 490 nm / emission 540 nm
Method: The compounds (I) according to the invention, as well as their pharmaceutically acceptable salts, solvates and/or hydrates, display SOAT-1 enzyme inhibiting properties. This inhibitory effect on the SOAT-1 enzyme is measured by a primary HepG2 enzyme test, as described below.
The compounds of formula (I) according to the invention were tested to evaluate their inhibitory activity with respect to the enzyme ACAT-1 based on the following work: “Identification of ACAT1- and ACAT2-specific inhibitors using a novel, cell based fluorescence assay: individual ACAT uniqueness”, J. lipid. Res (2004) vol 45, pages 378-386. The principle of this test is based on the use of NBD-cholesterol, an analogue of cholesterol with fluorescence depending on its environment. When it is in a polar environment it is weakly fluorescent, whereas in a non-polar environment it is strongly fluorescent. Free NBD-cholesterol localizes in the cell membranes and is weakly fluorescent in this polar environment. […]
The following method is used: HepG2 cells are incubated in the presence of NBD-cholesterol (1 μg/ml) and of the test compound of formula (I) in black, transparent-bottom 96-well plates at a rate of 30000 cells per well. […] After adding 50 μl of lysis buffer (NaPO4 10 mM, Igepal 1%) the plates are agitated for 5 min and, read in fluorescence (excitation 490 nm, emission 540 nm) on a FUSION instrument (Perkin Elmer).

CC(C)c1cccc(C(C)C)c1NC(=O)NCC1(SCc2ccccc2)CCCCC1 [Compound (I.4), 1-(1-Benzylsulfanyl-cyclohexylmethyl)-3-(2,6-diisopropyl-phenyl)-urea]
IC50: 71 nM
